Test results as given in the NIST ThermoML archive (doi:10.1021/je0601816).

Test: xn = mol fraction of the nth substance listed
Conditions: 100 kPa, Liquid, Taylor dispersion method, x1 = 0

Row | binary diffusion coefficient (273.2 K) | binary diffusion coefficient (293.2 K) | binary diffusion coefficient (298.2 K) | binary diffusion coefficient (313.2 K) | binary diffusion coefficient (333.2 K) | binary diffusion coefficient (353.2 K) | Compound
1 | 3.19e-10 m2/s | 6.25e-10 m2/s | 7.06e-10 m2/s | 1.01e-09 m2/s | 1.51e-09 m2/s | 2.17e-09 m2/s | O=C[C@H](O)[C@@H](O)[C@@H](O)[C@H](O)CO [(+)-galactose] + O
2 | 3.59e-10 m2/s | 6.82e-10 m2/s | 7.73e-10 m2/s | 1.11e-09 m2/s | 1.67e-09 m2/s | 2.37e-09 m2/s | O=C[C@@H](O)[C@H](O)[C@H](O)CO [D-(-)-arabinose] + O
3 | 3.34e-10 m2/s | 6.2e-10 m2/s | 7.04e-10 m2/s | 1.02e-09 m2/s | 1.59e-09 m2/s | 2.16e-09 m2/s | O=C[C@@H](O)[C@@H](O)[C@H](O)[C@H](O)CO [D-mannose] + O
4 | 3.48e-10 m2/s | 6.65e-10 m2/s | 7.69e-10 m2/s | 1.11e-09 m2/s | 1.64e-09 m2/s | 2.33e-09 m2/s | O=C[C@H](O)[C@@H](O)[C@H](O)CO [D-xylose] + O

Continued, molecule first:

Row | Compound | binary diffusion coefficient (273.2 K) | binary diffusion coefficient (293.2 K) | binary diffusion coefficient (298.2 K) | binary diffusion coefficient (313.2 K) | binary diffusion coefficient (333.2 K) | binary diffusion coefficient (353.2 K)
5 | O=C[C@H](O)[C@@H](O)[C@H](O)[C@H](O)CO [D-glucose] + O | 3.23e-10 m2/s | 6.05e-10 m2/s | 6.76e-10 m2/s | 9.97e-10 m2/s | 1.49e-09 m2/s | 2.13e-09 m2/s
6 | OC[C@H]1O[C@@](CO)(O[C@H]2O[C@H](CO)[C@@H](O)[C@H](O)[C@H]2O)[C@@H](O)[C@@H]1O [D-sucrose] + O | 2.55e-10 m2/s | 4.87e-10 m2/s | 5.46e-10 m2/s | 7.92e-10 m2/s | 1.17e-09 m2/s | 1.69e-09 m2/s
